From patent US20050010054A1, “Preparation of crystalline polymorphs of fosinopril sodium” (priority 2001, published 2005)
Values belong to the molecule of their own block, whether it stands above or below them.

Key:
[1] = Hydration of the solid under air exposure; details: form B from methanol solutions evaporated in an atomizer at room temperature
[2] = polymorph A versus polymorph B; as stated in EP-B-0442378; cited from earlier work
[3] = Hydrolytic degradation in mixtures of ketonic or alcoholic solvents and water; type: physicochemical; details: forms fosinoprilate, increases with time, higher temperature and higher water content
Excerpt: This hydrolytic degradation increases with time and with higher temperature and higher water content of the solvent.

Compound: CCC(=O)O[C@@H](O[P@](=O)(CCCCc1ccccc1)CC(=O)N1C[C@H](C2CCCCC2)C[C@H]1C(=O)[O-])C(C)C.[Na+] [form B, sodium salt of fosinopril]
hydration under air exposure [1]: spontaneously hydrated under air exposure

Compound: CCC(=O)O[C@@H](O[P@](=O)(CCCCc1ccccc1)CC(=O)N1C[C@H](C2CCCCC2)C[C@H]1C(=O)[O-])C(C)C.[Na+] [polymorph A, sodium salt of fosinopril]
relative thermodynamic stability of polymorphs [2]: more stable one from the thermodynamic point of view

hydrolytic stability in solution [3]: undergoes hydrolysis
Compound: CCC(=O)O[C@@H](O[P@](=O)(CCCCc1ccccc1)CC(=O)N1C[C@H](C2CCCCC2)C[C@H]1C(=O)[O-])C(C)C.[Na+] [sodium fosinopril, sodium salt of fosinopril]
